Laboratory results from ChEMBL document CHEMBL1671854, “ramR mutations involved in efflux-mediated multidrug resistance in Salmonella enterica serovar Typhimurium” (2008).
In brackets after ≈: the same amount, converted by molar mass.

Experiments:
Format in all cases: functional, Salmonella enterica subsp. enterica serovar Typhimurium
Salmonella typhimurium [1] = test: Antimicrobial activity against multidrug-resistant Salmonella enterica serovar Typhimurium 902SA92 harboring GyrA S83A and D87N, GyrB S464F and ParC S80I mutant genes by agar doubling dilution method
Salmonella typhimurium [2] = test: Antimicrobial activity against multidrug-resistant Salmonella enterica serovar Typhimurium 902SA92 harboring plasmid encoded RamR gene, GyrA S83A and D87N, GyrB S464F and ParC S80I mutant genes by agar doubling dilution method
Salmonella typhimurium [3] = test: Antimicrobial activity against ramA::kan-deficient Salmonella enterica serovar Typhimurium 902SA92 harboring GyrA S83A and D87N, GyrB S464F and ParC S80I mutant genes by agar doubling dilution method
Salmonella typhimurium [4] = test: Antimicrobial activity against multidrug-resistant Salmonella enterica serovar Typhimurium 102SA00 harboring GyrA S83A and D87N, GyrB S464F and ParC S80I mutant genes by agar doubling dilution method
Salmonella typhimurium [5] = test: Antimicrobial activity against multidrug-resistant Salmonella enterica serovar Typhimurium 102SA00 harboring plasmid encoded RamR gene, GyrA S83A and D87N, GyrB S464F and ParC S80I mutant genes by agar doubling dilution method
Salmonella typhimurium [6] = test: Antimicrobial activity against ramA::kan-deficient Salmonella enterica serovar Typhimurium 102SA00 harboring GyrA S83A and D87N, GyrB S464F and ParC S80I mutant genes by agar doubling dilution method
Salmonella typhimurium [7] = test: Antimicrobial activity against multidrug-resistant Salmonella enterica serovar Typhimurium BN10055 harboring GyrA S83Y mutant gene by agar doubling dilution method
Salmonella typhimurium [8] = test: Antimicrobial activity against multidrug-resistant Salmonella enterica serovar Typhimurium BN10055 harboring plasmid encoded RamR gene, GyrA S83Y mutant gene by agar doubling dilution method
Salmonella typhimurium [9] = test: Antimicrobial activity against ramA::kan-deficient Salmonella enterica serovar Typhimurium BN10055 harboring GyrA S83Y mutant gene by agar doubling dilution method
Salmonella typhimurium [10] = test: Antimicrobial activity against multidrug-resistant Salmonella enterica serovar Typhimurium 543SA98 harboring GyrA […] mutant gene by agar doubling dilution method
Salmonella typhimurium [11] = test: Antimicrobial activity against multidrug-resistant Salmonella enterica serovar Typhimurium 543SA98 harboring plasmid encoded RamR gene, GyrA S83Y mutant gene by agar doubling dilution method
Salmonella typhimurium [12] = test: Antimicrobial activity against ramA::kan-deficient Salmonella enterica serovar Typhimurium 543SA98 harboring GyrA S83Y mutant gene by agar doubling dilution method
Salmonella typhimurium [13] = test: Antimicrobial activity against multidrug-resistant Salmonella enterica serovar Typhimurium BN9945 by agar doubling dilution method
Salmonella typhimurium [14] = test: Antimicrobial activity against multidrug-resistant Salmonella enterica serovar Typhimurium BN9945 harboring plasmid encoded RamR gene by agar doubling dilution method
Salmonella typhimurium [15] = test: Antimicrobial activity against ramA::kan-deficient Salmonella enterica serovar Typhimurium BN9945 by agar doubling dilution method
Salmonella typhimurium [16] = test: Antimicrobial activity against multidrug-resistant Salmonella enterica serovar Typhimurium BN9181 by agar doubling dilution method
Salmonella typhimurium [17] = test: Antimicrobial activity against multidrug-resistant Salmonella enterica serovar Typhimurium BN9181 harboring plasmid encoded RamR gene by agar doubling dilution method
Salmonella typhimurium [18] = test: Antimicrobial activity against ramA::kan-deficient Salmonella enterica serovar Typhimurium BN9181 by agar doubling dilution method
Salmonella typhimurium [19] = test: Antimicrobial activity against Salmonella enterica serovar Typhimurium S/921495 by agar doubling dilution method
Salmonella typhimurium [20] = test: Antimicrobial activity against marR::kan-deficient Salmonella enterica serovar Typhimurium S/921495 by agar doubling dilution method
Salmonella typhimurium [21] = test: Antimicrobial activity against marR-deficient Salmonella enterica serovar Typhimurium S/921495 by agar doubling dilution method
Salmonella typhimurium [22] = test: Antimicrobial activity against marA::kan-deficient Salmonella enterica serovar Typhimurium S/921495 by agar doubling dilution method
Salmonella typhimurium [23] = test: Antimicrobial activity against soxR::kan-deficient Salmonella enterica serovar Typhimurium S/921495 by agar doubling dilution method
Salmonella typhimurium [24] = test: Antimicrobial activity against soxS::kan-deficient Salmonella enterica serovar Typhimurium S/921495 by agar doubling dilution method
Salmonella typhimurium [25] = test: Antimicrobial activity against Salmonella enterica serovar Typhimurium S/921495 harboring plasmid encoded RamR gene by agar doubling dilution method
Salmonella typhimurium [26] = test: Antimicrobial activity against ramR-deficient Salmonella enterica serovar Typhimurium S/921495 harboring plasmid encoded RamR gene by agar doubling dilution method
Salmonella typhimurium [27] = test: Antimicrobial activity against ramA::kan-deficient Salmonella enterica serovar Typhimurium S/921495 by agar doubling dilution method
Salmonella typhimurium [28] = test: Antimicrobial activity against Salmonella enterica serovar Typhimurium BN18 by agar doubling dilution method
Salmonella typhimurium [29] = test: Antimicrobial activity against Salmonella enterica serovar Typhimurium BN18 harboring plasmid encoded RamR gene by agar doubling dilution method
Salmonella typhimurium [30] = test: Antimicrobial activity against ramA::kan-deficient Salmonella enterica serovar Typhimurium BN18 by agar doubling dilution method
Salmonella typhimurium [31] = test: Antimicrobial activity against Salmonella enterica serovar Typhimurium BN18/21 by agar doubling dilution method
Salmonella typhimurium [32] = test: Antimicrobial activity against Salmonella enterica serovar Typhimurium BN18/21 harboring plasmid encoded RamR gene by agar doubling dilution method
Salmonella typhimurium [33] = test: Antimicrobial activity against ramA::kan-deficient Salmonella enterica serovar Typhimurium BN18/21 by agar doubling dilution method
Salmonella typhimurium [34] = test: Antimicrobial activity against Salmonella enterica serovar Typhimurium BN18/41 harboring GyrA G81C,acrR mutant genes by agar doubling dilution method
Salmonella typhimurium [35] = test: Antimicrobial activity against Salmonella enterica serovar Typhimurium BN18/41 harboring plasmid encoded RamR gene, GyrA G81C,acrR mutant genes by agar doubling dilution method
Salmonella typhimurium [36] = test: Antimicrobial activity against ramA::kan-deficient Salmonella enterica serovar Typhimurium BN18/41 harboring plasmid encoded RamR gene, GyrA G81C,acrR mutant genes by agar doubling dilution method
Salmonella typhimurium [37] = test: Antimicrobial activity against Salmonella enterica serovar Typhimurium BN18/71 harboring GyrA G81C, acrR mutant genes by agar doubling dilution method
Salmonella typhimurium [38] = test: Antimicrobial activity against Salmonella enterica serovar Typhimurium BN18/71 harboring plasmid encoded RamR gene, GyrA G81C,acrR mutant genes by agar doubling dilution method
Salmonella typhimurium [39] = test: Antimicrobial activity against ramA::kan-deficient Salmonella enterica serovar Typhimurium BN18/71 harboring plasmid encoded RamR gene, GyrA G81C,acrR mutant genes by agar doubling dilution method
Salmonella typhimurium [40] = test: Antimicrobial activity against ramR::kan-deficient Salmonella enterica serovar Typhimurium S/921495 by agar doubling dilution method
Salmonella typhimurium [41] = test: Antimicrobial activity against ramR-deficient Salmonella enterica serovar Typhimurium S/921495 by agar doubling dilution method

O=C(N[C@H](CO)[C@H](O)c1ccc([N+](=O)[O-])cc1)C(Cl)Cl [CHLORAMPHENICOL] gave an MIC (Salmonella typhimurium [1]) of 1020 µg/mL (≈ 3170 µM), an MIC (Salmonella typhimurium [2]) of 256 µg/mL (≈ 792 µM) and an MIC (Salmonella typhimurium [3]) of 256 µg/mL (≈ 792 µM). The MIC (Salmonella typhimurium [4]) was 512 µg/mL (≈ 1580 µM), the MIC (Salmonella typhimurium [5]) was 256 µg/mL (≈ 792 µM) and the MIC (Salmonella typhimurium [6]) was 256 µg/mL (≈ 792 µM). For the same molecule, the MIC (Salmonella typhimurium [7]) was 1020 µg/mL (≈ 3170 µM), the MIC (Salmonella typhimurium [8]) was 1020 µg/mL (≈ 3170 µM) and the MIC (Salmonella typhimurium [9]) was 128 µg/mL (≈ 396 µM). It also gave an MIC (Salmonella typhimurium [10]) of 512 µg/mL (≈ 1580 µM), an MIC (Salmonella typhimurium [11]) of 128 µg/mL (≈ 396 µM) and an MIC (Salmonella typhimurium [12]) of 128 µg/mL (≈ 396 µM). It also gave an MIC (Salmonella typhimurium [13]) of 512 µg/mL (≈ 1580 µM), an MIC (Salmonella typhimurium [14]) of 128 µg/mL (≈ 396 µM) and an MIC (Salmonella typhimurium [15]) of 128 µg/mL (≈ 396 µM). For the same molecule, the MIC (Salmonella typhimurium [16]) was 128 µg/mL (≈ 396 µM), the MIC (Salmonella typhimurium [17]) was 128 µg/mL (≈ 396 µM) and the MIC (Salmonella typhimurium [18]) was 128 µg/mL (≈ 396 µM). It also gave an MIC (Salmonella typhimurium [19]) of 4 µg/mL (≈ 12.4 µM), an MIC (Salmonella typhimurium [20]) of 4 µg/mL (≈ 12.4 µM) and an MIC (Salmonella typhimurium [21]) of 4 µg/mL (≈ 12.4 µM). For the same molecule, the MIC (Salmonella typhimurium [22]) was 4 µg/mL (≈ 12.4 µM), the MIC (Salmonella typhimurium [23]) was 4 µg/mL (≈ 12.4 µM) and the MIC (Salmonella typhimurium [24]) was 4 µg/mL (≈ 12.4 µM). The MIC (Salmonella typhimurium [25]) was 4 µg/mL (≈ 12.4 µM), the MIC (Salmonella typhimurium [26]) was 4 µg/mL (≈ 12.4 µM) and the MIC (Salmonella typhimurium [27]) was 4 µg/mL (≈ 12.4 µM). It also gave an MIC (Salmonella typhimurium [28]) of 4 µg/mL (≈ 12.4 µM), an MIC (Salmonella typhimurium [29]) of 4 µg/mL (≈ 12.4 µM) and an MIC (Salmonella typhimurium [30]) of 4 µg/mL (≈ 12.4 µM). The MIC (Salmonella typhimurium [31]) was 16 µg/mL (≈ 49.5 µM), the MIC (Salmonella typhimurium [32]) was 4 µg/mL (≈ 12.4 µM) and the MIC (Salmonella typhimurium [33]) was 4 µg/mL (≈ 12.4 µM). The MIC (Salmonella typhimurium [34]) was 32 µg/mL (≈ 99 µM), the MIC (Salmonella typhimurium [35]) was 16 µg/mL (≈ 49.5 µM) and the MIC (Salmonella typhimurium [36]) was 16 µg/mL (≈ 49.5 µM). For the same molecule, the MIC (Salmonella typhimurium [37]) was 64 µg/mL (≈ 198 µM), the MIC (Salmonella typhimurium [38]) was 16 µg/mL (≈ 49.5 µM) and the MIC (Salmonella typhimurium [39]) was 16 µg/mL (≈ 49.5 µM). The MIC (Salmonella typhimurium [40]) was 16 µg/mL (≈ 49.5 µM) and the MIC (Salmonella typhimurium [41]) was 16 µg/mL (≈ 49.5 µM).
